In patent US9657043B2, “Amine compound and use thereof for medical purposes” (MITSUBISHI TANABE PHARMA CORPORATION, priority 2012, dated 2017):

System: peripheral blood lymphocyte count
Experiment: Evaluation of peripheral blood lymphocyte count-decreasing effect in mice
Format: in vivo, male BALB/c mice
Details: Mus musculus, ip, intraperitoneal administration, 24 hr after administration, in 20% cyclodextrin, read-out: ED50 (dose necessary for 50% reduction of the lymphocyte count of vehicle group as 100%)
Procedure: The compound of the present invention was dissolved or suspended in 20% cyclodextrin (manufactured by NIHON SHOKUHIN KAKO CO., LTD), and intraperitoneally administered to a 7- to 10-week-old male BALB/c mice (CHARLES RIVER LABORATORIES, JAPAN INC.) at a dose of 0.001-10 mg/kg body weight. After 24 hr from the administration of the compound of the present invention, peripheral blood (about 0.3 ml) was drawn from the postcava of the mouse with a heparin sodium (manufactured by NovoNordisk)-treated tuberculin syringe (manufactured by TERUMO CORPORATION) under ether anesthesia. The blood (0.1 ml) was hemolysed with an automatic hemolysis processing apparatus (TQ-Prep, manufactured by BECKMAN COULTER, Inc.), and the number of lymphocytes was counted with a Flow Cytometer (CYTOMICS FC 500, manufactured by BECKMAN COULTER, Inc.) by a gating method using scattering at the front and the side of the laser beam as indices and using Flow-Count™ Fluorospheres (manufactured by BECKMAN COULTER, Inc.), whose standard particle count is known, as internal standard. A dose necessary for 50% reduction of the lymphocyte count of vehicle group as 100% was calculated and used as ED50 value (mg/kg body weight).

| SMILES | ED50 [mg/kg] |
| --- | --- |
| CCCCCCOc1ccc2c(=O)c3ccc(CCC(N)(CO)CO)cc3sc2c1 [Example 20, 3-[3-amino-4-hydroxy-3-(hydroxymethyl)butyl]-6-hexyloxy-9H-thioxanthen-9-one] | 0.05 |
| CCCCCOc1ccc2oc3ccc(CCC(N)(CO)CO)cc3c(=O)c2c1 [Example 22, 2-[3-amino-4-hydroxy-3-(hydroxymethyl)butyl]-7-pentyloxy-9H-xanthen-9-one] | 0.07 |
| CCCCCCOc1ccc2oc3ccc(CCC(N)(CO)CO)cc3c(=O)c2c1 [Example 23, 2-[3-amino-4-hydroxy-3-(hydroxymethyl)butyl]-7-hexyloxy-9H-xanthen-9-one] | 0.03 |
| CCCCCOc1ccc2c(=O)c3ccc(CCC(N)(CO)CO)cc3oc2c1 [Example 41, 3-[3-amino-4-hydroxy-3-(hydroxymethyl)butyl]-6-pentyloxy-9H-xanthen-9-one] | 0.37 |
| NC(CO)(CO)CCc1ccc2sc3ccc(Oc4cccc(C(F)(F)F)c4)cc3c(=O)c2c1 [Example 44, 2-[3-amino-4-hydroxy-3-(hydroxymethyl)butyl]-7-[3-(trifluoromethyl)phenoxy]-9H-thioxanthen-9-one] | 0.01 |
| NC(CO)(CO)CCc1ccc2sc3cc(Oc4cccc(C(F)(F)F)c4)ccc3c(=O)c2c1 [Example 54, 2-[3-amino-4-hydroxy-3-(hydroxymethyl)butyl]-6-[3-(trifluoromethyl)phenoxy]-9H-thioxanthen-9-one] | 0.02 |
| NC(CO)(CO)CCc1ccc2sc3cc(Oc4ccc(Cl)cc4)ccc3c(=O)c2c1 [Example 55, 2-[3-amino-4-hydroxy-3-(hydroxymethyl)butyl]-6-(4-chlorophenoxy)-9H-thioxanthen-9-one] | 0.03 |
| NC(CO)(CO)CCc1ccc2sc3ccc(Oc4cccc(Cl)c4)cc3c(=O)c2c1 [Example 76, 2-[3-amino-4-hydroxy-3-(hydroxymethyl)butyl]-7-(3-chlorophenoxy)-9H-thioxanthen-9-one] | 0.04 |
| Cl.NC(CO)(CO)CCc1ccc2c(=O)c3cc(Oc4cccc(C(F)(F)F)c4)ccc3oc2c1 [Example 83, 6-[3-amino-4-hydroxy-3-(hydroxymethyl)butyl]-2-[3-(trifluoromethyl)phenoxy]-9H-xanthen-9-one] | 0.05 |
| NC(CO)(CO)CCc1ccc2oc3cc(Oc4ccc(F)cc4)ccc3c(=O)c2c1 [Example 105, 2-[3-amino-4-hydroxy-3-(hydroxymethyl)butyl]-6-(4-fluorophenoxy)-9H-xanthen-9-one] | 0.22 |
| COc1ccc(Oc2ccc3c(=O)c4cc(CCC(N)(CO)CO)ccc4oc3c2)cc1 [Example 108, 2-[3-amino-4-hydroxy-3-(hydroxymethyl)butyl]-6-(4-methoxyphenoxy)-9H-xanthen-9-one] | 0.05 |
| NC(CO)(CO)CCc1ccc2oc3cc(Oc4ccc(F)c(Cl)c4)ccc3c(=O)c2c1 [Example 116, 2-[3-amino-4-hydroxy-3-(hydroxymethyl)butyl]-6-(3-chloro-4-fluorophenoxy)-9H-xanthen-9-one] | 0.09 |
| NC(CO)(CO)CCc1ccc2c(=O)c3cc(Oc4ccc(F)c(Cl)c4)ccc3oc2c1 [Example 138, 6-[3-amino-4-hydroxy-3-(hydroxymethyl)butyl]-2-(3-chloro-4-fluorophenoxy)-9H-xanthen-9-one] | 0.06 |
| COc1ccc(Oc2ccc3c(=O)c4ccc(CCC(N)(CO)CO)cc4oc3c2)cc1 [Example 143, 3-[3-amino-4-hydroxy-3-(hydroxymethyl)butyl]-6-(4-methoxyphenoxy)-9H-xanthen-9-one] | 0.14 |
| Cl.NC(CO)(CO)CCc1ccc2oc3cc(-c4cccc(OC(F)(F)F)c4)ccc3c(=O)c2c1 [Example 164, 2-[3-amino-4-hydroxy-3-(hydroxymethyl)butyl]-6-[3-(trifluoromethoxy)phenyl]-9H-xanthen-9-one] | 0.04 |
| NC(CO)(CO)CCc1ccc2oc3cc(-c4cccc(C(F)(F)F)c4)ccc3c(=O)c2c1 [Example 172, 2-[3-amino-4-hydroxy-3-(hydroxymethyl)butyl]-6-[3-(trifluoromethyl)phenyl]-9H-xanthen-9-one] | 0.09 |
| CCCC/C=C/c1ccc2oc3cc(CCC(N)(CO)CO)ccc3c(=O)c2c1 [Example 180, 6-[3-amino-4-hydroxy-3-(hydroxymethyl)butyl]-2-[(1E)-hex-1-en-1-yl]-9H-xanthen-9-one] | 0.03 |
